Laboratory results as given in ChEMBL document CHEMBL4330123, “Synthesis of 1',2'-methano-2',3'-dideoxynucleosides as potential antivirals” (Bioorg Med Chem Lett, 2019).
Active and inactive are the calls of the source.

Legend:
[1] = test system: Cytomegalovirus; test: Antiviral activity against CMV assessed as inhibition of viral replication by cell-based assay; format: functional, organism-based
[2] = test system: Human alphaherpesvirus 1; test: Antiviral activity against HSV1 assessed as inhibition of viral replication by cell-based assay; format: functional, organism-based
[3] = test system: SW480; test: Antiproliferative activity against human SW480 cells up to 100 uM by Celltiter-Glo assay; format: functional, cell-based
[4] = test system: A-375; test: Antiproliferative activity against human A375 cells up to 100 uM by Celltiter-Glo assay; format: functional, cell-based
[5] = test system: Human gammaherpesvirus 4; test: Antiviral activity against EBV assessed as inhibition of viral replication by cell-based assay; format: functional, organism-based
[6] = test system: Human alphaherpesvirus 3; test: Antiviral activity against VZV assessed as inhibition of viral replication by cell-based assay; format: functional, organism-based
[7] = test system: HCT cell line; test: Antiproliferative activity against human HCT cells up to 100 uM by Celltiter-Glo assay; format: functional, cell-based

Nc1ccn([C@@]23C[C@@H]2C[C@@H](CO)O3)c(=O)n1
inactive: inhibition [1] | inhibition [2] | Activity [3] | Activity [4] | inhibition [5] | inhibition [6] | Activity [7]

O=c1ccn([C@@]23C[C@@H]2C[C@@H](CO)O3)c(=O)[nH]1
inactive: inhibition [1] | inhibition [2] | Activity [3] | Activity [4] | inhibition [5] | inhibition [6] | Activity [7]

CC(C)OC(=O)[C@H](C)NP(=O)(OC[C@@H]1C[C@H]2C[C@@]2(n2ccc(=O)[nH]c2=O)O1)Oc1ccccc1 (stereo partly drawn)
inactive: inhibition [1] | inhibition [2] | Activity [3] | Activity [4] | inhibition [5] | inhibition [6] | Activity [7]

CC(C)OC(=O)[C@H](C)NP(=O)(OC[C@@H]1C[C@H]2C[C@@]2(n2ccc(N)nc2=O)O1)Oc1ccccc1 (stereo partly drawn)
inactive: inhibition [1] | inhibition [2] | Activity [3] | Activity [4] | inhibition [5] | inhibition [6] | Activity [7]
